The values below come from EP3095787A1, “[…] ACTIVE COMPOUNDS AS DAG-LIPASE INHIBITORS” (Universiteit Leiden, priority 2015, dated 2016).

The structures appear in SMILES notation. “Also recorded” adds a separate entry of the source.

In one assay the test system is serine hydrolases. As to the kind of experiment: Comparative and competitive gel ABPP selectivity in mouse brain membrane proteome (TAMRA-FP and MB064). Format: biochemical. The conditions noted are these: 10 µM; TAMRA-FP 500 nM and MB064 250 nM. The procedure: For gel based ABPP experiments mouse brain proteome (2.0 mg/mL, 20 µL) was preincubated for 30 min with vehicle (DMSO) or compound to be tested in 0.5 µL DMSO at rt. And subsequently treated with 500 nM (final concentration) TAMRA-FP (TAMRA-FP was bought at Thermo Fischer) for 15 minutes at rt. The reactions were quenched with 10 µL standard 3 x SDS page sample buffer. The samples were directly loaded and resolved on SDS page gel (10 % acrylamide). The gels were scanned with a ChemiDoc MP sytem (Biorad, Cy 3 settings, 605/50 filter) and analyzed using Image Lab 4.1.
To investigate the selectivity of compound 25 in the mouse brain proteome comparative and competitive ABPP was used with a broad-spectrum FP-based probe (TAMRA-FP) and the tailored DAGL-α ABP MB064. As a reference the widely used β-lactone-based DAGL-inhibitors THL and OMDM-188, two broad-spectrum covalent and irreversible serine hydrolase inhibitors, were firstly tested.

The next assay concerns CA1 pyramidal neurons. Kind of assay: Depolarization-induced suppression of inhibition (DSI) in hippocampal slices, whole-cell voltage clamp. The note with it: 10 µM bath application, pre-incubated at least 30 min; mouse hippocampal slices. It is filed as cell-based. The source says: Experimental evidence, which supports a role of DAGL-α in short-term synaptic plasticity, has been obtained through the use of genetically engineered mice that constitutively lack DAGL-α. DSI was absent in these DAGL-α knock-out mice, but not in their DAGL-β knock-out counter parts.
Horizontal slices (300 µm) of the hippocampus were obtained from male C57BL/6 mice (Harlan, the Netherlands) aged 14-19 days postnatal. Experiments were approved by the animal welfare committee of the University of Amsterdam. […] Inhibitory postsynaptic currents (IPSCs) were evoked with a glass stimulus electrode (filled with ACSF) positioned in the stratum radiatum, close to the recorded neuron. […]
Stock solutions (10 mM) of LEI105 were made in dimethylsulfoxide (DMSO), which was diluted to the final concentration (10 µM) in ACSF. […] Control experiments were performed on neurons recorded in slices pre-incubated with and in the continuous presence of 0.1 % DMSO.
For each CA1 neuron IPSCs were evoked with 5 sec intervals during a 2-min baseline period, prior to the stimulus evoking depolarization-induced suppression of inhibition (DSI). The maximum amplitude of each IPSC was determined and the mean value of the IPCS amplitudes over this period was calculated and used to normalize the evoked synaptic response. […]

The next assay concerns the target T1, hDAGL-β (Homo sapiens, UniProt Q8NCG7).
T1 sequence (Q8NCG7 1-672): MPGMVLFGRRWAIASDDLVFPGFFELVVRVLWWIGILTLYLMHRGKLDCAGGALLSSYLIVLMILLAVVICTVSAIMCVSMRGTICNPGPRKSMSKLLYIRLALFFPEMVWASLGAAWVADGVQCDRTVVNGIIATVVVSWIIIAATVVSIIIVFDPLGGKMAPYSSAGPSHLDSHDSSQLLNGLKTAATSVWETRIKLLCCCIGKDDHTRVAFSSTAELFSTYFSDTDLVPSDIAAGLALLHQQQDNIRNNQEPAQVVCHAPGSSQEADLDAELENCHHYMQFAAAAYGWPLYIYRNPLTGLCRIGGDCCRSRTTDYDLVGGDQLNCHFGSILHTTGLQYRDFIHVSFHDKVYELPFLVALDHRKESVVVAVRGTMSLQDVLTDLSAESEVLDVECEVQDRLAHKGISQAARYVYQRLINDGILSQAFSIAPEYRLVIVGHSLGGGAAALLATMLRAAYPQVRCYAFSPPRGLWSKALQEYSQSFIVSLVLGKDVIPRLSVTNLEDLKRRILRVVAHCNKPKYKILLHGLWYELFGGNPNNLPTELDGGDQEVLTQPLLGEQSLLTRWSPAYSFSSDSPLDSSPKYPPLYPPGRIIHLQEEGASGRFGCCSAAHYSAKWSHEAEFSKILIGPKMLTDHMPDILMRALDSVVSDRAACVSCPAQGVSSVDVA
As to the kind of experiment: Competitive ABPP with MB064 on membranes of hDAGL-β transfected HEK293 cells. Format: biochemical. The arrangement: FLAG; expressed in transfected cells; host or cells: HEK293, membranes. The note with it: n=3, read-out: pIC50 of hDAGL-β labeling (converted). The procedure: In view of the high homology between DAGL-α and DAGL-β the inventors assesed the activity of compound 25 also on native DAGL-β. To this end, it was tested whether the ABP probe MB064 was also able to label DAGL-β. MB064 was incubated with membranes from mock and hDAGL-β transfected HEK293 cells. MB064 was able to label a protein at the expected molecular weight of DAGL-β, which was not present in the control membranes, or in S443A-hDAGL-β transfected cells, in which the catalytic serine is replaced by alanine using site-directed mutagenesis (Figure 1 F). Thus, the tailor-made probe can also detect DAGL-β.

Take `Cc1ccc(-c2cnc3nc(C(=O)CCCCCc4ccccc4)oc3c2)cc1` [Compound 25, 1-(6-(p-Tolyl)oxazolo[4,5-b]pyridin-2-yl)-6-phenylhexan-1-one]: in the assay on serine hydrolases, the “labeling of other bands (selectivity)” value was “excellent selectivity; also recorded: did not inhibit labeling of any other band”. For the same compound, in the assay on CA1 pyramidal neurons, the DSI entry was “clear suppression of DSI; also recorded: DSI is reduced”. Further, the IC50 at hDAGL-β was 39.8 nM.
